Data: ChEMBL document CHEMBL1949648, “Synthesis and neurite growth evaluation of new analogues of honokiol, a neolignan with potent neurotrophic activity” (2012)

Assays:
N2a [1] = experiment: Induction of neurite outgrowth in mouse Neuro2a cells at 1 uM after 48 hrs by morphometric analysis relative to control; format: functional
N2a [2] = experiment: Induction of neurite outgrowth in mouse Neuro2a cells at 0.1 uM after 48 hrs by morphometric analysis relative to control; format: functional

SMILES | Activity (N2a [1]) [%] | Activity (N2a [2]) [%]
C=CCc1ccc(O)c(-c2ccc(O)c(-c3ccc(C(=O)OCC)c(C)n3)c2)c1 | 5.78 | 
C=CCc1ccc(OC)c(-c2ccc(OC)c(C(=O)c3cn(Cc4ccccc4)nn3)c2)c1 | 6.87 | 
C=CCc1ccc(OC)c(-c2ccc(O)c(-c3ccn(C)n3)c2)c1 |  | 5.89
C=CCc1ccc(O)c(-c2ccc(O)c(CC=C)c2)c1 [HONOKIOL] | 41.03 | 
